What was measured:
[1] = tested on: SF-268 (CNS cancer); test: NCI-60 screen (SRB, 48 h); settings: Homo sapiens
[2] = tested on: SK-MEL-5 (Melanoma); test: NCI-60 screen (SRB, 48 h); settings: Homo sapiens
[3] = tested on: Breast cancer subpanel; test: NCI-60 screen, subpanel; settings: Homo sapiens
[4] = tested on: RPMI-8226 (Leukemia); test: NCI-60 screen (SRB, 48 h); settings: Homo sapiens
[5] = tested on: SR (Leukemia); test: NCI-60 screen (SRB, 48 h); format: cell-based
[6] = tested on: SF-539 (CNS cancer); test: NCI-60 screen (SRB, 48 h); settings: Homo sapiens
[7] = tested on: NCI-H23 (NSC lung cancer); test: NCI-60 screen (SRB, 48 h); settings: Homo sapiens
[8] = tested on: NSC lung cancer subpanel; test: NCI-60 screen, subpanel; settings: Homo sapiens
[9] = tested on: UACC-257 (Melanoma); test: NCI-60 screen (SRB, 48 h); settings: Homo sapiens
[10] = tested on: NCI-H460 (NSC lung cancer); test: NCI-60 screen (SRB, 48 h); settings: Homo sapiens
[11] = tested on: MDA-MB-435 (Melanoma); test: NCI-60 screen (SRB, 48 h); format: cell-based; settings: Homo sapiens
[12] = tested on: HCC-2998 (Colon cancer); test: NCI-60 screen (SRB, 48 h); settings: Homo sapiens
[13] = tested on: BT-549 (Breast cancer); test: NCI-60 screen (SRB, 48 h); format: cell-based; settings: Homo sapiens
[14] = tested on: A375 (malignant melanoma); test: SRB cytotoxicity assay, 72 h; format: cell-based, human; settings: A375, 72 h, cut-off 30 µM
How it was run: (§1)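 EC50 values from SRB absorbance (570 nm) after TCA fixation, as percent surviving cells versus untreated controls. Compound exposure was 72 h at 0–30 µM, starting 24 h post-seeding, with final DMSO not above 0.5%.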

[15] = tested on: FaDu (hypopharyngeal carcinoma); test: SRB cytotoxicity assay, 72 h; format: cell-based, human; settings: cut-off 30 µM
How it was run: as §1

[16] = tested on: MCF-7 (breast carcinoma); test: SRB cytotoxicity assay, 72 h; format: cell-based, human; settings: MCF-7, 72 h, cut-off 30 µM
How it was run: as §1

[17] = tested on: HT29 (colorectal carcinoma); test: SRB cytotoxicity assay, 72 h; format: cell-based, human; settings: HT29, 72 h, cut-off 30 µM
How it was run: as §1

[18] = tested on: A2780 (ovarian carcinoma); test: SRB cytotoxicity assay, 72 h; format: cell-based, human; settings: A2780, 72 h, cut-off 30 µM
How it was run: as §1

[19] = tested on: NCI-H522 (NSC lung cancer); test: NCI-60 screen (SRB, 48 h); settings: Homo sapiens
[20] = tested on: OVCAR-4 (Ovarian cancer); test: NCI-60 screen (SRB, 48 h); format: cell-based; settings: Homo sapiens
[21] = tested on: 786-0 (Renal cancer); test: NCI-60 screen (SRB, 48 h); settings: Homo sapiens
[22] = tested on: ACHN (Renal cancer); test: NCI-60 screen (SRB, 48 h); settings: Homo sapiens
[23] = tested on: Melanoma subpanel; test: NCI-60 screen, subpanel; settings: Homo sapiens
[24] = tested on: MDA-MB-468 (Breast cancer); test: cells; settings: Homo sapiens
[25] = tested on: OVCAR-8 (Ovarian cancer); test: NCI-60 screen (SRB, 48 h); settings: Homo sapiens

With `CC1(C)CC[C@]2(CO)CC[C@]3(C)C(=CC[C@@H]4[C@@]5(C)CCCNC(C)(C)[C@@H]5CC[C@]43C)[C@@H]2C1` [Compound 3, azepanoerythrodiol] the GI50 ([1]; SF-268) was 2.9 µM, the IC (TGI) ([1]; SF-268, 48 h, read-out: TGI) was 9.77 µM and the CC50 ([1]; SF-268, read-out: LC50) was 65.6 µM. For the same molecule, the GI50 ([2]; SK-MEL-5) was 1.68 µM, the IC (TGI) ([2]; SK-MEL-5, 48 h, read-out: TGI) was 3.14 µM and the CC50 ([2]; SK-MEL-5, read-out: LC50) was 5.86 µM. For the same molecule, the IC (TGI) ([3]; 48 h, read-out: TGI MG_MID) was 14.6 µM, the GI50 ([3]; read-out: GI50 MG_MID) was 3.12 µM and the CC50 ([3]; read-out: LC50 MG_MID) was 43.6 µM. For the same molecule, the GI50 ([4]; RPMI-8226) was 2.71 µM, the IC (TGI) ([4]; RPMI-8226, 48 h, read-out: TGI) was 10.1 µM and the CC50 ([4]; RPMI-8226, read-out: LC50) was over 100 µM. The TGI [5] was over 100 µM, the GI50 ([5]; Homo sapiens) was 2.22 µM and the CC50 ([5]; Homo sapiens, read-out: LC50 (the source's name)) was over 100 µM. For the same molecule, the GI50 ([6]; SF-539) was 11 µM, the IC (TGI) ([6]; SF-539, 48 h, read-out: TGI) was 2.41 µM and the CC50 ([6]; SF-539, read-out: LC50) was 52.7 µM. For the same molecule, the GI50 ([7]; NCI-H23) was 1.11 µM, the IC (TGI) ([7]; NCI-H23, 48 h, read-out: TGI) was 24.6 µM and the CC50 ([7]; NCI-H23, read-out: LC50) was 54.5 µM. For the same molecule, the IC (TGI) ([8]; 48 h, read-out: TGI MG_MID) was 17.8 µM, the GI50 ([8]; read-out: GI50 MG_MID) was 2.87 µM and the CC50 ([8]; read-out: LC50 MG_MID) was 44.1 µM. The GI50 ([9]; UACC-257) was 2.49 µM, the IC (TGI) ([9]; UACC-257, 48 h, read-out: TGI) was 6.47 µM and the CC50 ([9]; UACC-257, read-out: LC50) was 27.6 µM. It also gave a GI50 ([10]; NCI-H460) of 1.92 µM, an IC (TGI) ([10]; NCI-H460, 48 h, read-out: TGI) of 3.8 µM and a CC50 ([10]; NCI-H460, read-out: LC50) of 7.56 µM. The GI50 ([11]; MDA-MB-435) was 1.71 µM, the IC (TGI) ([11]; MDA-MB-435, 48 h, read-out: TGI) was 3.36 µM and the CC50 ([11]; MDA-MB-435, read-out: LC50 (the source's name)) was 6.59 µM. The GI50 ([12]; HCC 2998) was 1.89 µM, the IC (TGI) ([12]; HCC 2998, 48 h, read-out: TGI) was 3.81 µM and the CC50 ([12]; HCC 2998, read-out: LC50) was 7.69 µM. The GI50 ([13]; BT-549) was 1.01 µM, the IC (TGI) ([13]; BT-549, 48 h) was 24.5 µM and the CC50 ([13]; BT-549, read-out: LC50 (the source's name)) was 59.2 µM. For the same molecule, the EC50 [14] was “n.s”, the EC50 [15] was “n.s” and the EC50 [16] was “n.s”. The EC50 [17] was “n.s”, the EC50 [18] was “n.s” and the GI50 ([19]; NCI-H522) was 2.04 µM. For the same molecule, the IC (TGI) ([19]; NCI-H522, 48 h, read-out: TGI) was 4.19 µM, the CC50 ([19]; NCI-H522, read-out: LC50) was 8.59 µM and the IC (TGI) ([20]; OVCAR-4, 48 h) was 17.5 µM. For the same molecule, the GI50 ([20]; OVCAR-4, read-out: GI50) was 4.48 µM, the CC50 ([20]; OVCAR-4, read-out: LC50 (the source's name)) was 45.2 µM and the GI50 ([21]; 786-0) was 2.25 µM. It also gave an IC (TGI) ([21]; 786-0, 48 h, read-out: TGI) of 4.84 µM, a CC50 ([21]; 786-0, read-out: LC50) of 12.7 µM and a GI50 [22] of 3.44 µM. The IC (TGI) ([22]; 48 h, read-out: TGI) was 11.5 µM, the CC50 ([22]; read-out: LC50) was 38.3 µM and the IC (TGI) ([23]; 48 h, read-out: TGI MG_MID) was 4.31 µM. It also gave a GI50 ([23]; read-out: GI50 MG_MID) of 2.05 µM, a CC50 ([23]; read-out: LC50 MG_MID) of 12.2 µM and a GI50 ([24]; MDA-MB-468) of 1.79 µM. The IC (TGI) ([24]; MDA-MB-468, 48 h, read-out: TGI) was 3.74 µM, the CC50 ([24]; MDA-MB-468, read-out: LC50) was 7.81 µM and the GI50 ([25]; OVCAR-8) was 3.83 µM. The IC (TGI) ([25]; OVCAR-8, 48 h, read-out: TGI) was 15.6 µM and the CC50 ([25]; OVCAR-8, read-out: LC50) was 54.1 µM.

Reference: article PMC7914897, “Cytotoxic Potential of a-Azepano- and 3-Amino-3,4-SeCo-Triterpenoids” (International Journal of Molecular Sciences, 2021)
